Reference: patent US12274688B2, “Drug-loaded mesoporous silica nanoparticle for prevention and treatment of brain cancers or brain metastases” (NANO TARGETING & THERAPY BIOPHARMA INC, priority 2022, dated 2025)

Legend:
[1] = test system: TMZ-resistant glioma cells (U87MG-R); assay: Orthotopic TMZ-resistant brain tumor mouse model (survival, tumor size)
Protocol: TMZ-resistant glioma cells (U87MG-R) were cultured at 37° C. in a humidified 5% CO2 atmosphere in Dulbecco's Modified Eagle Medium (DMEM) supplemented with 10% fetal bovine serum and 100 ug/mL penicillin/streptomycin. NOD-SCID male mice (8-week-old) were purchased from BioLASCO Taiwan Co. Ltd. For intracranial transplantation, an experimental procedure was performed under sterile conditions. For TMZ-resistant glioblastoma transplantation, a skull burr hole was created in the right frontal brain area. Cells (2×10^5, or five microliters of TMZ-resistant glioma cell suspension (U87MG-R, 6×10^5 cells/5 μL) were injected into the cortex at a depth of 3 mm using stereotactic guidance and a microprocessor single syringe (Harvard Apparatus, Holliston, MA, USA).
(§1) The administration frequency was twice per week until the end of the study. DTX, CTX and PBS were intravenously (IV) injected and TMZ was intraperitoneally (IP) injected into mice. To assess overall survival, mice were monitored up to the point of spontaneous death or approaching moribund status.
Body weight and survival time of animals were monitored up to the point of spontaneous death.

[2] = Toxicity/tolerability in mice transplanted with TMZ-resistant brain tumors; settings: for Survival of mice to the end of the testing period: 10 or 20 mg/kg IV with TMZ 10 mg/kg, testing period (15)/19 days; for Toxicity (body weight decrease, low survival rate): dose of 10 mg/kg or above IV, with TMZ 10 mg/kg IP
Description: (§2) To evaluate the toxicity of DTX and CTX and the efficacy of direct administration of DTX and CTX on treating TMZ resistant brain tumors, 36 mice transplanted with TMZ-resistant brain tumors were used in the experiments, divided into six groups, each group having six mice; details of dosage are noted in Table 7 below:
as §1

[3] = mouse, in vivo, iv
Description: as §2, §1

[4] = 10 mg/kg IV + TMZ 10 mg/kg IP, twice per week
[5] = 20 mg/kg IV + TMZ 10 mg/kg IP, twice per week
[6] = PBS IV + TMZ 10 mg/kg IP, twice per week

SMILES | Median Survival Time (days after 1st injection) [1, 4] | Median Survival Time (days after implantation of tumor cells) [1, 4] | Median Survival Time (days after 1st injection) [1, 5] | Median Survival Time (days after implantation of tumor cells) [1, 5] | Survival of mice to the end of the testing period [2] | Toxicity of direct administration ([2]; dose of 5 mg/kg or higher) | Toxicity (body weight decrease, low survival rate) [2] | Signs of toxicity [3] | Median Survival Time (days after 1st injection) [1, 6] | Median Survival Time (days after implantation of tumor cells) [1, 6] | Median Survival Time (days after implantation of tumor cells) ([1]; Table 9: PBS + TMZ (10 mg/kg)) | Median Survival Time (days after implantation of tumor cells) ([1]; Table 10: PBS + TMZ (10 mg/kg))
CO[C@H]1C(=O)[C@]2(C)[C@@H](OC)C[C@H]3OC[C@@]3(OC(C)=O)[C@H]2[C@H](OC(=O)c2ccccc2)[C@]2(O)C[C@H](OC(=O)[C@H](O)[C@@H](NC(=O)OC(C)(C)C)c3ccccc3)C(C)=C1C2(C)C [CTX, cabazitaxel] | 11 days | 15 days | 8 days | 12 days | all mice died before the end of the testing period | high toxicity | high toxicity | – | – | – | – | –
CC(=O)O[C@@]12CO[C@@H]1C[C@H](O)[C@@]1(C)C(=O)[C@H](O)C3=C(C)[C@@H](OC(=O)[C@H](O)[C@@H](NC(=O)OC(C)(C)C)c4ccccc4)C[C@@](O)([C@@H](OC(=O)c4ccccc4)[C@H]21)C3(C)C [DTX, docetaxel] | 15 days | 19 days | 11 days | 15 days | all mice died before the end of the testing period | – | high toxicity | immobility, interaction deficits, and more body weight loss | – | – | – | –
Cn1nnc2c(C(N)=O)ncn2c1=O [TMZ, temozolomide] | – | – | – | – | – | – | – | – | 23 days | 27 days | 27 [26.5] days | 27 [26.5] days
